Assay [1] concerns Rabbit Anterior Cruciate Ligament Transection (ACLT) Model. Description: Rabbit ACLT osteoarthritis model, NSAID dispersed in HA (Example 4). The format is in vivo, New Zealand White Rabbits. The note with it: intra-articular 160 μL once per week for 5 weeks. The text has this: Osteoarthritis is a degenerative disease that degrades cartilage, resulting in pain, restriction of motion and deformity. In the ACLT model, the appearance of OA can be seen at 6 weeks and is characterized by erosion of cartilage on the trochlear grove and mild to serious cartilage erosion on the femoral condyle. The last symptoms to arise are on the tibial plateau. At 6 weeks, there is some damage visible on the tibial plateau, but the damage may not be great given the length of the study. […] While osteophyte formation is a factor in the analysis, several parameters are observed, wherein each parameter alone is not sufficient to draw a conclusion. Therefore, the composite score provides a more meaningful result for a particular agent tested.
The ACLT model was used to evaluate the ability of a NSAID agent in a pharmaceutical formulation administered directly into the intra-articular capsule of the knee to reduce the incidence of osteoarthritic changes. The NSAIDs formulations prepared in Example 2 were used and injected 6 weeks after animal preparation. A commercially available form of purified HA was used as the vehicle control. The animals (n=7 per group) were dosed (160 μL per injection) once per week for 5 weeks.
Female New Zealand White Rabbits (n=84, Milibrook Breeding Labs, SPF) used in the study underwent ACLT on the right knee.
One week after the last injection (total 12 weeks from time of ACLT), animals were euthanized and gross observations were made on the knee joints. Histological sectioning and staining were performed on the condyles.
The joints were analyzed for disease state in the trochlear groove, the femoral condyles and the tibial plateau. Pathological assessments were performed on the sectioned tissue. Condylar structure, cellularity, presence of GAG (glycosaminoglycans) and presence of cartilage were evaluated.
On the anterior surface of the femur (trochlear groove), the number of osteophytes, the size (diameter) of osteophytes, the presence of trochlear groove thickening and the erosion of cartilage were evaluated grossly.
On the femoral condyles, the erosion of cartilage (% surface area) (both medial and lateral condyle), the erosion of cartilage (depth) and the presence of clefts were evaluated grossly.
On the tibial plateau, observations on the thickening, presence of clefts and erosion were made.
Each parameter was given a score. The combination of all parameters gave a Total Score. A higher score indicates more damage to the joint. The data for un-operated joints (no surgery) has been included as a baseline for a normal joint.

Assay [2] concerns the target COX-1 (Homo sapiens, UniProt P23219). Nature of the assay: In vitro efficacy: inhibitor of COX-1. The format is biochemical.
For assay [3], the target named is T1, COX-2 (Homo sapiens, UniProt P35354).
T1 sequence (P35354 18-604): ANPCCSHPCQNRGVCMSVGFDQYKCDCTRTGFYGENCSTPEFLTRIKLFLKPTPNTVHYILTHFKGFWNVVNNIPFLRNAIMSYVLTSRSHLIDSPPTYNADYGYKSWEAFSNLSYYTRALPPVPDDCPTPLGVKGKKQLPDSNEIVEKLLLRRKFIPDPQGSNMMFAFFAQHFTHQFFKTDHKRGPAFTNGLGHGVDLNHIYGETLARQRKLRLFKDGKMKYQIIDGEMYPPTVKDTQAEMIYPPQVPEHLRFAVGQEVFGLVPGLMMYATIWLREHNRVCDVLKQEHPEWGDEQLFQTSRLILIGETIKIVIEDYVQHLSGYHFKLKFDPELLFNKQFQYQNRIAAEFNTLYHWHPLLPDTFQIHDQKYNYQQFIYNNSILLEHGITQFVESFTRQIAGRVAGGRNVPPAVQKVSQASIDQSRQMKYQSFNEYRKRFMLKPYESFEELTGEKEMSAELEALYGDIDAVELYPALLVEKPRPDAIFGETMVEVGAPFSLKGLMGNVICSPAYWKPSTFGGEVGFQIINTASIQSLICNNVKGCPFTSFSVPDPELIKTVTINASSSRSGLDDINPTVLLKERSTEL
Nature of the assay: In vitro efficacy: inhibitor of COX-2. The assay is classed as biochemical.

Assay [4] has as its system LTB4. Description: In vitro efficacy: inhibitor of LTB4. The assay is classed as biochemical.
The subject of assay [5] is TXB2. Nature of the assay: In vitro efficacy: inhibitor of TXB2. The format is biochemical.
Assay [6] concerns the target T2, 5LO-1 (Homo sapiens, UniProt P09917).
T2 sequence (P09917 1-674): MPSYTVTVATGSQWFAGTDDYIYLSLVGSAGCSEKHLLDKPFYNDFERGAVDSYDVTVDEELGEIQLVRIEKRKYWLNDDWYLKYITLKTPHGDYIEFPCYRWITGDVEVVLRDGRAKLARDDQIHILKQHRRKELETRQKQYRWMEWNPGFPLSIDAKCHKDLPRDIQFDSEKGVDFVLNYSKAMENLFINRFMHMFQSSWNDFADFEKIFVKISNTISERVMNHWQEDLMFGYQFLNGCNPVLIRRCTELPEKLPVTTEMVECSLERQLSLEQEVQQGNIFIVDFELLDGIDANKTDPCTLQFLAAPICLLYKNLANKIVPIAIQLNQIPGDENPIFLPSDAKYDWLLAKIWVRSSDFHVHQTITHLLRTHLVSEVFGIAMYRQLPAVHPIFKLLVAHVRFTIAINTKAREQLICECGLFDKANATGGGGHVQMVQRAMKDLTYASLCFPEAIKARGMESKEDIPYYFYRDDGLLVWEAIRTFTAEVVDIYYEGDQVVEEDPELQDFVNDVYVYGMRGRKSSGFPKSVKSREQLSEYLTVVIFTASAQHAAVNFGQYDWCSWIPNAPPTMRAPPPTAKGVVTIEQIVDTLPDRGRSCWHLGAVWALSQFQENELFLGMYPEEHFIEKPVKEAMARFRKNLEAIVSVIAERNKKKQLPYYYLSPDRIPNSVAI
Description: In vitro efficacy: inhibitor of 5LO-1. The format is biochemical.

This note sets out measurements from US20060122150A1, “Pharmaceutical composition and method for treating a joint-capsule arthropathy” (priority 2004, published 2006).

Chain of COX-1 (P23219 24-599): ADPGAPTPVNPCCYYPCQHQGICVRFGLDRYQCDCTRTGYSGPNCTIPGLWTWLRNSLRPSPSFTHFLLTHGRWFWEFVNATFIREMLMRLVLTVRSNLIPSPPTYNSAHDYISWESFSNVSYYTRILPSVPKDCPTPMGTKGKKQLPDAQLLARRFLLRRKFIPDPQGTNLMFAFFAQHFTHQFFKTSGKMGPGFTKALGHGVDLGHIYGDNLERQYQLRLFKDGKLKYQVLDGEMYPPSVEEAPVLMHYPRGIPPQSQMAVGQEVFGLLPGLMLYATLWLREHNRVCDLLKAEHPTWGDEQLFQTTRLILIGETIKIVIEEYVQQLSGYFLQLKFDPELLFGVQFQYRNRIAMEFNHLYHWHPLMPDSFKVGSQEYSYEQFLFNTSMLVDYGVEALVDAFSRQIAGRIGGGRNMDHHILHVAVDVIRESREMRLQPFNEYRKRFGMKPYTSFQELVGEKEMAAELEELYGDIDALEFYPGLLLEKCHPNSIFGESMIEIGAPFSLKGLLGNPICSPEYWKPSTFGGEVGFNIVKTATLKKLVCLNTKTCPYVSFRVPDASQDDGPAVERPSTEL

Take `COc1ccc(-n2nc(CCC(=O)N(C)O)cc2-c2ccc(Cl)cc2)cc1` [Tepoxalin]: the “Medial Femoral Condyle (% Surface Area Erosion) score” value in assay [1] (all dose groups) was “average numerical scores less than Vehicle and No Injection treated groups”. The “All Cartilage Effects composite score” value in assay [1] (high dose) and in assay [1] (mid dose) was “lower mean scores than the No Injection treated group” each time. Further, in assay [1] (high dose), the “All Trochlear Groove Effects composite score” value is “lower mean scores than Vehicle and No Injection treated groups”. The “Total Score (composite of all scoring criteria)” value (shortened to “Total Score”) in assay [1] (high dose) and in assay [1] (low dose) was “numerically less average scores than the No Injection treated group” in each case. Moreover, the “Trochlear Groove (Erosion of Cartilage) grade” value in assay [1] (high dose) is “numerically lower than the Vehicle control and No Injection treated groups”. For the same molecule, the “Lateral Femoral Condyle (% Surface Area Erosion) score” value in assay [1] (mid dose) is “average numerical scores less than Vehicle and No Injection treated groups”. Further, the concentration for half-maximal inhibition (IC50) in assay [2] turned out to be 970 nM; in assay [3] it was 2000 nM; in assay [4], 40 nM; in assay [5], 2 nM; in assay [6] it was 170 nM.
With `CC(C(=O)O)c1ccc(C(=O)c2cccs2)cc1` (stereo not drawn) [Suprofen], in assay [1] (all dose groups), the “All Trochlear Groove Effects composite score” value is “lower mean scores than Vehicle and No Injection treated groups”. For the same molecule, in assay [1] (all dose levels), the “Trochlear Groove (Erosion of Cartilage) grade” value is “numerically lower than the Vehicle control and No Injection treated groups”. For the same molecule, in assay [1] (high dose), the “All Cartilage Effects composite score” value was “lower mean scores than the No Injection treated group”; the “Lateral Femoral Condyle (% Surface Area Erosion) score” value is “average numerical scores less than Vehicle and No Injection treated groups”; the “Total Score” value is reported as “numerically less average scores than the No Injection treated group”. In addition, the “Medial Femoral Condyle (% Surface Area Erosion) score” value in assay [1] (low dose) is listed as “the same average score as No Injection but scored better than Vehicle”. In addition, in assay [1] (mid dose), the “All Cartilage Effects composite score” value was “lower mean scores than the No Injection treated group”; the “All Tibial Plateau Effects composite score” value was “lower average scores than the No Injection treated group”; the “Lateral Femoral Condyle (% Surface Area Erosion) score” value was “average numerical scores less than Vehicle and No Injection treated groups”; the “Medial Femoral Condyle (% Surface Area Erosion) score” value was “average numerical scores less than Vehicle and No Injection treated groups”. The “Total Score” value in assay [1] (mid dose) was “numerically less average scores than the No Injection treated group”. Further, the IC50 in assay [2] worked out at 60 nM. Moreover, the IC50 in assay [3] came out at 1000 nM. In addition, the IC50 in assay [6] was 3000 nM.
Regarding `Cc1ccc(C(=O)c2ccc(CC(=O)O)n2C)cc1` [Tolmetin], in assay [1] (high dose), the “All Trochlear Groove Effects composite score” value is “lower mean scores than Vehicle and No Injection treated groups”; the “Femoral Condyle (Depth of Erosion) score” value is recorded as “the same average score as the No Injection group”; the “Trochlear Groove (Erosion of Cartilage) grade” value was “numerically lower than the Vehicle control and No Injection treated groups”. In assay [1] (low dose), the “Medial Femoral Condyle (% Surface Area Erosion) score” value was “average numerical scores less than Vehicle and No Injection treated groups”. Moreover, in assay [1] (mid dose), the “All Cartilage Effects composite score” value was “lower mean scores than the No Injection treated group”; the “All Tibial Plateau Effects composite score” value is recorded as “lower average scores than the No Injection treated group”; the “Lateral Femoral Condyle (% Surface Area Erosion) score” value is “average numerical scores less than Vehicle and No Injection treated groups”; the “Medial Femoral Condyle (% Surface Area Erosion) score” value was “average numerical scores less than Vehicle and No Injection treated groups”. Also, in assay [1] (mid dose), the “Total Score” value was “numerically less average scores than the No Injection treated group”. The molecule also returned an IC50 in assay [2] of 3000 nM. The molecule also returned an IC50 in assay [3] of 50 nM. The molecule also gave an IC50 in assay [6] of 30 nM.

The term IC50 denotes the concentration that inhibits the measured activity by half. A lower IC50 goes with greater potency.
